The results in this text go back to patent publication US8883798B2, “Pyrimidine compounds inhibiting the formation of nitric oxide and prostaglandin E2, method of production thereof and use thereof” (Ustav Organicke Chemie a Biochemie Akademie Ved CR, V.V.I., priority 2011, dated 2014).

The test system of one data set is HUVEC. Briefly: HUVEC cell proliferation (XTT assay). Format: cell-based, human. Particulars: 10 to 50 μmol/L, 8 hours.
Data set [1] concerns production of nitric oxide (NO). Briefly: Production of nitric oxide (NO) in cultures of mouse peritoneal cells stimulated with IFN-γ plus LPS (Griess reagent). Format: cell-based, mice. Particulars: Table 3A; substance 50 μmol·l^−1; IFN-g plus LPS; 24 h. Summed up:
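C57BL/6 mouse peritoneal cells (2×10^6/mL) stimulated with IFN-γ (5000 pg/mL) plus LPS (100 pg/mL), compounds at 50 μmol·l^−1. Nitrite measured by Griess reagent after 24 h, expressed as % of stimulated control (set 100%); IC50 is concentration reducing NO by 50%.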
On the technique in general: Griess reagent forms a coloured azo dye with nitrite.

Data set [2] has as its system adjuvant arthritis in sewer rats. Briefly: Adjuvant arthritis in female Lewis sewer rats (Freund's complete adjuvant). Particulars: 50 mg/kg orally, Day 9 to Day 16; versus methylcellulose group. Format: in vivo, sewer rats of the inbred strain Lewis.
The test system of data set [3] is human umbilical vein endothelial cells (HUVEC). Briefly: Tube formation assay of HUVEC on Matrigel (in vitro angiogenesis). Format: cell-based. Particulars: 8 h. An excerpt:
This so called “Tube Formation Assay” is a method based on the ability of endothelial cells to form capillary-like tubular structures when cultured on Matrigel™ (a gel of basement membrane extract—their natural substrate). The process of capillary-like tube formation includes endothelial cell attachment, migration, and differentiation into tubules. In this experiment, treatment with tested compounds started at the time of seeding HUVEC onto Matrigel and the extent of tubule development was observed after an 8 h time period. Disruption of tube formation was then assessed through observation of the tubular network and direct comparison to solvent-only controls. The quantitative and qualitative measurement of tubular network complexity was performed using web-based S.CORE imaging software and expressed by means of number of tubes, their total length, quality, number of branching points, etc. All these parameters were integrated into “tube formation index” which corresponds to the degree of complexity of tubular network. […] At a 10 μmol/L concentration, compound 23 reduced tube formation by >90%. […] Apoptosis in HUVECs (at ˜70% confluency) treated with or without varying concentrations (relevant for the tube formation assay) of tested substances was assessed by a combination of Annexin V and JC-1 staining. After 8 h of these treatments, cells were collected, and the cell population undergoing apoptosis was identified by double-parameter flow cytometry using annexin V and the vital dye propidium iodide (PI). Mitochondrial membrane potential in treated endothelial cells was measured using the lypophilic probe JC-1, which aggregates in healthy mitochondria and fluoresces red, but diffuses in the cytoplasm and fluoresces green upon mitochondrial damage. In both cases, quantification of apoptotic cells were conducted in BD FACSDiva software.

Another data set deals with chronic colitis in mice. Briefly: Chronic murine colitis induced by dextran sulfate sodium. Format: in vivo, mice (Balb/c). Particulars: 10 mg/kg orally, daily for 15 days. The method, then: Chronic colitis was induced in mice (Balb/c) by dextran sulfate sodium (DSS), used as a 3% solution in drinking water. DSS treatment was applied intermittently on the three 5-day intervals, separated by the 9-day intervals (i.e. between the DSS cycles 1/2 and 2/3) during which the mice drunk normal water.
The test compounds were given orally, suspended in 0.5% methylcellulose. The dose was 10 mg/kg. The daily dosing started immediately after the second DSS interval and lasted to the end of the 3rd DSS interval, i.e. for the duration of 15 days. At this point, the animals were sacrificed and clinical signs of colitis were examined. Except of continuous monitoring the body weight, the following parameters were evaluated: a) colon length, b) disease activity index, and c) histological grade. Three compounds were included in this experiment: nos. 19, 51, and 28. 5-Aminosalycilic acid was used as a positive reference drug. The effects were compared to the group of mice receiving placebo (0.5% methylcellulose).

For data set [4] the following is noted: rat, in vivo, po, 800 mg/kg.
Description: (§1) 28. The plasma samples were taken in intervals during 48 hours. […] Plasma samples were prepared by centrifugation (3500 rpm, 10 min, 4° C.), transferred into appropriately labelled and sealed Eppendorf tubes and frozen at −20° C. until transportation to analyses. The plasma was split into two aliquots. All samples were transported in a sufficient amount of dry ice to the analytical laboratory.
(§2) The analysis was performed using HPLC/MS/MS method with the use of internal deuterated standard and precipitation separation method. The analytical method used 50 μl of plasma sample for each analysis. The method was validated for concentration as low as 10.0 ng of the compound in 1 ml of plasma. A weighted liner regression was evaluated over the concentration range from 10.0-10 000.0 ng of the compound in 1 ml of plasma. Spiked plasma samples were precipitated with the solution of internal standard. The sample supernatant was analyzed on HPL/MS/MS system TSQ-03.
The subject of data set [5] is human peripheral blood lymphocytes. Briefly: Chromosomal aberration test in vitro. Format: cell-based. Particulars: 0.1, 0.2 and 0.5 mg/ml; with and without metabolic activation. The procedure:
The clastogenicity potential of compound no. 28 was determined using chromosomal aberration test in vitro. The test was carried out in human peripheral blood lymphocytes both with and without metabolic activation system in two separate assays.
Three concentrations were selected for the test: 0.1, 0.2 and 0.5 mg/ml of final culture. Cells were arrested at metaphase by colchicine, harvested and slides were stained. Metaphase cells were analyzed microscopically for the presence of chromosomal aberrations. A total of 200 well-spread metaphases were examined per concentration on coded slides. Concurrent positive (thiotepa, cyclophosphamide) and negative (2% DMSO) controls were included in each experiment. […].

Data set [6] in a line: Pilot toxic-kinetic study, single per-oral administration. Particulars: female Wistar rats; single per-oral dose 800 mg/kg; plasma.
Description: as §1, §2

In the case of `CCCCc1c(Cl)nc(NC=O)nc1Cl` [Substance 51], the HUVEC cell proliferation result in the data set on HUVEC is recorded as “did not influence HUVEC cell proliferation”. The “Production of nitric oxide in % of the controls” value in data set [1] is 8.37 ± 2.77 % of the controls. In addition, the “Severity of adjuvant arthritis (size of contralateral paws)” value in data set [2] was “distinctive (statistically significant) reduction of the severity of the illness”. Also, in data set [3] (10 μmol/L), the “Effect on tube formation” value is “only limited effect”. In data set [3] (25 μmol/L), the Incomplete tube formation is reported as approximately 6%. For the same molecule, in data set [3], the Capillary tube formation entry is “inhibited capillary tube formation in a dose dependent manner”.
For `CCCCc1c(Cl)nc(N)nc1Cl` [Substance 28], in the data set with chronic colitis in mice, the “Clinical signs of chronic experimental colitis” value is “significantly lowers the clinical signs of chronic experimental colitis”, the “Colon length (inflammation in the gut)” value is reported as “protection against the shortening of colon”, the “Effectiveness compared with 5-aminosalycilic acid” value is “slightly more effective than the reference drug” and the “Overall disease activity index” value is on record as “lower than in the placebo group”. For the same molecule, the “Production of nitric oxide in % of the controls” value in data set [1] is on record as 53.23 ± 5.79 % of the controls. Besides, the “Toxic effect in animals” value in data set [4] was “No apparent toxic effect was observed”. Also, the “Numerical and structural chromosome aberrations (clastogenicity)” value in data set [5] was “did not induce an increase in numerical and structural chromosome aberrations”. In data set [6], the “Cmax = maximum concentration” value amounted to 337.2 ng/mL and the “Terminal elimination rate half-life” value worked out at 15.9 h.
